Assay results taken from the NIST ThermoML archive (doi:10.1016/j.fluid.2016.02.009).

Settings: Liquid, Vibrating tube method

CCCCCOCCCCC [dipentyl ether]
Settings | mass density [kg/m3]
283.15 K, 100 kPa | 790.99
283.15 K, 5000 kPa | 794.85
283.15 K, 10000 kPa | 798.47
283.15 K, 15000 kPa | 801.9
283.15 K, 20000 kPa | 805.2
283.15 K, 25000 kPa | 808.38
283.15 K, 30000 kPa | 811.47
283.15 K, 35000 kPa | 814.44
283.15 K, 40000 kPa | 817.31
283.15 K, 45000 kPa | 820.12
283.15 K, 50000 kPa | 822.84
283.15 K, 55000 kPa | 825.48
283.15 K, 60000 kPa | 828.06
283.15 K, 65000 kPa | 830.58
288.15 K, 100 kPa | 786.98
288.15 K, 5000 kPa | 790.95
288.15 K, 10000 kPa | 794.65
288.15 K, 15000 kPa | 798.17
288.15 K, 20000 kPa | 801.55
288.15 K, 25000 kPa | 804.81
288.15 K, 30000 kPa | 807.94
288.15 K, 35000 kPa | 810.97
288.15 K, 40000 kPa | 813.93
288.15 K, 45000 kPa | 816.78
288.15 K, 50000 kPa | 819.54
288.15 K, 55000 kPa | 822.24
288.15 K, 60000 kPa | 824.87
288.15 K, 65000 kPa | 827.41
293.15 K, 100 kPa | 782.96
293.15 K, 5000 kPa | 787.04
293.15 K, 10000 kPa | 790.83
293.15 K, 15000 kPa | 794.44
293.15 K, 20000 kPa | 797.91
293.15 K, 25000 kPa | 801.23
293.15 K, 30000 kPa | 804.44
293.15 K, 35000 kPa | 807.54
293.15 K, 40000 kPa | 810.53
293.15 K, 45000 kPa | 813.44
293.15 K, 50000 kPa | 816.26
293.15 K, 55000 kPa | 819.01
293.15 K, 60000 kPa | 821.67
293.15 K, 65000 kPa | 824.26
298.15 K, 100 kPa | 778.94
298.15 K, 5000 kPa | 783.12
298.15 K, 10000 kPa | 787.02
298.15 K, 15000 kPa | 790.73
298.15 K, 20000 kPa | 794.27
298.15 K, 25000 kPa | 797.69
298.15 K, 30000 kPa | 800.97
298.15 K, 35000 kPa | 804.13
298.15 K, 40000 kPa | 807.2
298.15 K, 45000 kPa | 810.16
298.15 K, 50000 kPa | 813.04
298.15 K, 55000 kPa | 815.82
298.15 K, 60000 kPa | 818.54
298.15 K, 65000 kPa | 821.19
303.15 K, 100 kPa | 774.9
303.15 K, 5000 kPa | 779.22
303.15 K, 10000 kPa | 783.2
303.15 K, 15000 kPa | 787
303.15 K, 20000 kPa | 790.65
303.15 K, 25000 kPa | 794.13
303.15 K, 30000 kPa | 797.48
303.15 K, 35000 kPa | 800.72
303.15 K, 40000 kPa | 803.84
303.15 K, 45000 kPa | 806.86
303.15 K, 50000 kPa | 809.78
303.15 K, 55000 kPa | 812.62
303.15 K, 60000 kPa | 815.39
303.15 K, 65000 kPa | 818.05
308.15 K, 100 kPa | 770.87
308.15 K, 5000 kPa | 775.29
308.15 K, 10000 kPa | 779.38
308.15 K, 15000 kPa | 783.28
308.15 K, 20000 kPa | 787
308.15 K, 25000 kPa | 790.57
308.15 K, 30000 kPa | 793.99
308.15 K, 35000 kPa | 797.3
308.15 K, 40000 kPa | 800.48
308.15 K, 45000 kPa | 803.56
308.15 K, 50000 kPa | 806.55
308.15 K, 55000 kPa | 809.43
308.15 K, 60000 kPa | 812.24
308.15 K, 65000 kPa | 814.95
313.15 K, 100 kPa | 766.82
313.15 K, 5000 kPa | 771.35
313.15 K, 10000 kPa | 775.57
313.15 K, 15000 kPa | 779.56
313.15 K, 20000 kPa | 783.37
313.15 K, 25000 kPa | 787.03
313.15 K, 30000 kPa | 790.53
313.15 K, 35000 kPa | 793.9
313.15 K, 40000 kPa | 797.15
313.15 K, 45000 kPa | 800.28
313.15 K, 50000 kPa | 803.33
313.15 K, 55000 kPa | 806.26
313.15 K, 60000 kPa | 809.11
313.15 K, 65000 kPa | 811.88
318.15 K, 100 kPa | 762.76
318.15 K, 5000 kPa | 767.42
318.15 K, 10000 kPa | 771.74
318.15 K, 15000 kPa | 775.84
318.15 K, 20000 kPa | 779.77
318.15 K, 25000 kPa | 783.5
318.15 K, 30000 kPa | 787.08
318.15 K, 35000 kPa | 790.52
318.15 K, 40000 kPa | 793.82
318.15 K, 45000 kPa | 797.02
318.15 K, 50000 kPa | 800.1
318.15 K, 55000 kPa | 803.09
318.15 K, 60000 kPa | 806
318.15 K, 65000 kPa | 808.83
323.15 K, 100 kPa | 758.69
323.15 K, 5000 kPa | 763.48
323.15 K, 10000 kPa | 767.94
323.15 K, 15000 kPa | 772.13
323.15 K, 20000 kPa | 776.12
323.15 K, 25000 kPa | 779.95
323.15 K, 30000 kPa | 783.62
323.15 K, 35000 kPa | 787.13
323.15 K, 40000 kPa | 790.51
323.15 K, 45000 kPa | 793.75
323.15 K, 50000 kPa | 796.9
323.15 K, 55000 kPa | 799.95
323.15 K, 60000 kPa | 802.89
323.15 K, 65000 kPa | 805.77
328.15 K, 100 kPa | 754.6
328.15 K, 5000 kPa | 759.51
328.15 K, 10000 kPa | 764.08
328.15 K, 15000 kPa | 768.39
328.15 K, 20000 kPa | 772.51
328.15 K, 25000 kPa | 776.42
328.15 K, 30000 kPa | 780.18
328.15 K, 35000 kPa | 783.75
328.15 K, 40000 kPa | 787.17
328.15 K, 45000 kPa | 790.5
328.15 K, 50000 kPa | 793.7
328.15 K, 55000 kPa | 796.82
328.15 K, 60000 kPa | 799.82
328.15 K, 65000 kPa | 802.72
333.15 K, 100 kPa | 750.51
333.15 K, 5000 kPa | 755.54
333.15 K, 10000 kPa | 760.26
333.15 K, 15000 kPa | 764.69
333.15 K, 20000 kPa | 768.87
333.15 K, 25000 kPa | 772.87
333.15 K, 30000 kPa | 776.68
333.15 K, 35000 kPa | 780.35
333.15 K, 40000 kPa | 783.87
333.15 K, 45000 kPa | 787.29
333.15 K, 50000 kPa | 790.54
333.15 K, 55000 kPa | 793.66
333.15 K, 60000 kPa | 796.72
333.15 K, 65000 kPa | 799.67
